Among the data in patent publication US8445500B2, “Pesticidal compositions” (Dow AgroSciences, LLC., priority 2007, dated 2013) are insecticidal activity values, retold here.

SMILES strings stand for the structures.

For the assay, the system named is Yellow Fever Mosquito Aedes aegypti. Description: Insecticidal assay 4, yellow fever mosquito larvae, 96-well plate. Type of assay: in vivo. As to conditions: A. aegypti first instar larvae in water; 1.5 microliters of 4 micrograms per microliter in DMSO per well; assessed after 72 hours at 22° C. The text has this: 4. Insecticidal Assay for Yellow Fever Mosquito Aedes aegypti:
Objective: To evaluate the insecticidal activity of compounds against A. aegypti larvae through contact and ingestion.
Test unit preparation: Empty, 96-well microtiter plates are loaded onto a robotic dispensing system prior to application.
Formulation and application: Compounds are formulated in dimethyl sulfoxide at 4-micrograms per microliter. A robotic system dispenses 1.5 microliters of each formulated experimental solution into each well of an empty, 96-well microtiter plate. Each treatment is replicated 3 times.
Infesting: Subsequent to application, recently hatched, mosquito larvae are suspended in water containing 0.4% mosquito diet (1:3 mix of brewers yeast to liver powder). A robotic system dispenses aliquots of this aqueous solution containing 5-8 first instar mosquitoes into each well of the treated plates.
Holding and assessment: After infestation, the plates are covered with a matching clear plastic lid. Infested plates are stacked and held in an incubator at 22° C. for 72 hours. At assessment, cells are examined by means of a dissecting microscope for insecticidal effects.

Regarding `CN(Nc1nc(C(F)(F)F)nc(C(F)(F)F)c1C#N)c1ccc(C#N)cn1` [Compound 30], the insecticidal activity result is listed as “significant insecticidal activity”.
